Here are results for 33 compounds from patent publication US20240174647A1 (NEURON23, INC., priority 2022, published 2024).

In general, IC50 refers to the point on the concentration scale where inhibition reaches its midpoint. A low value points to greater potency in that assay.

For this experiment, the target named is wt human LRRK2, catalytic site (Homo sapiens (Human), UniProt Q5S007). The experiment is described as follows: TR-FRET LanthaScreen Tb Kinase Activity Assay (LRRK2 kinase inhibition). Type of experiment: biochemical. Particulars: 2 nM wt human LRRK2, 400 nM fluorescein-ERM (LRRKtide) peptide, 38 μM ATP, 120 minutes at room temperature. How it is done:
The compounds in Table 1 were tested for their inhibitory effect on LRRK2 kinase according to the following procedures.
The protocol for basic TR-FRET LanthaScreen Tb Kinase Activity Assay inhibitor studies were as follows. LanthaScreen Kinase Activity Assays (ThermoFisher/USA) to evaluate inhibitors were performed by addition of 100 nL of test compound in corresponding DMSO dilutions/5 μL of kinase/fluorescein-ERM(LRRKtide) peptide mixture, 5 μL of ATP into 384 well small volume plates. After incubation for 120 minutes at room temperature, the detection reagents containing Tb-anti-pLRRKtide antibody were added to monitor phosphrylation level of peptide. Then, after 60 min minutes incubation at room temperature plates were read in Envision. Data analysis of emission ratios was according to LanthaScreen Tb Kinase Activity Assay protocol.
Kinase and assay components were adjusted to final concentrations according to the kit protocol. For LRRK2: 2 nM wt human LRRK2, catalytic site, catalytic site (ThermoFisher/USA), 400 nM peptide, 38 μM ATP in 1× Kinase Buffer A.
Basic protocol for TR-FRET LanthaScreen Tb Kinase Activity Assay inhibitor studies involved two steps: • Enzymatic step: Addition of 100 nL of test compound in corresponding DMSO dilutions, 5 μL of kinase/substrate mixture, 5 μL of ATP into 384 well small volume plates. Incubation for 120 minutes at room temperature. • Detection step: Addition of 10 μL EDTA & antibody, read plate after 60 minutes. Data analysis of emission ratios according to KinEASE assay protocol.
Kinase and assay components were adjusted to final concentrations according to the kit protocol.
In the table below, activity is provided as follows: +++=IC50 less than 50 nM; ++=IC50 between 50 nM and 200 nM; +=IC50>=200 nM
For orientation: In TR-FRET formats the signal depends on donor and acceptor labels being close together.

wt human LRRK2, catalytic site, sequence (Q5S007 1879-2138): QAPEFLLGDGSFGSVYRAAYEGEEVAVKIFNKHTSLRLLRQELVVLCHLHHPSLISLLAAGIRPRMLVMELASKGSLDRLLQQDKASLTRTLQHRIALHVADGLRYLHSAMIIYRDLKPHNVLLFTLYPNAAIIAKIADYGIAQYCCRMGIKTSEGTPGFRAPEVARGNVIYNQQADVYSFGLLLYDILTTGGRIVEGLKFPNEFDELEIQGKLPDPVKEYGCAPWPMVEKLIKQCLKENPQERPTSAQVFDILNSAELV

Compound `CNc1nc(Nc2ccc3[nH]ncc3c2)ncc1C(F)(F)F` [Example 72, N2-(1H-indazol-5-yl)-N4-methyl-5-(trifluoromethyl)pyrimidine-2,4-diamine] yielded an IC50 of less than 50 nM. The figure for `CNc1nc(Nc2ccc3c(cnn3C)c2)ncc1C(F)(F)F` [Example 73, N4-methyl-N2-(1-methyl-1H-indazol-5-yl)-5-(trifluoromethyl)pyrimidine-2,4-diamine] is less than 50 nM. Turning to `CNc1nc(Nc2ccc3nn(C)cc3c2)ncc1C(F)(F)F` [Example 74, N4-methyl-N2-(2-methyl-2H-indazol-5-yl)-5-(trifluoromethyl)pyrimidine-2,4-diamine], the IC50 was less than 50 nM. The figure for `CNc1nc(Nc2cccc3cn[nH]c23)ncc1C(F)(F)F` [Example 75, N2-(1H-indazol-7-yl)-N4-methyl-5-(trifluoromethyl)pyrimidine-2,4-diamine] is 50 to 200 nM.

Compound `CNc1nc(Nc2cccc3cnn(C)c23)ncc1C(F)(F)F` [Example 76, N4-methyl-N2-(1-methyl-1-indazol-7-yl)-5-(trifluoromethyl)pyrimidine-2,4-diamine] registered an IC50 not below 200 nM.

Take `CNc1nc(Nc2cccc3c2cnn3CCC(=O)N2CCOCC2)ncc1C(F)(F)F` [Example 77, 3-(4-((4-(methylamino)-5-(trifluoromethyl)pyrimidin-2-yl)amino)-1H-indazol-1-yl)-1-morpholinopropan-1-one]: the IC50 was less than 50 nM.

Compound `O=S(=O)(C1CC1)n1ncc2c(Nc3ncc(C(F)(F)F)c(NC4CC4)n3)cccc21` [Example 78, N4-cyclopropyl-N2-(1-(cyclopropylsulfonyl)-1H-indazol-4-yl)-5-(trifluoromethyl)pyrimidine-2,4-diamine] came in with an IC50 of less than 50 nM.

Compound `CNc1nc(Nc2cccc3c2cnn3C)ncc1Cl` [Example 79, 5-chloro-N4-methyl-N2-(1-methyl-1H-indazol-4-yl)pyrimidine-2,4-diamine] showed an IC50 of less than 50 nM.

`CNc1nc(Nc2ccc(C(F)(F)F)c3c2cnn3CC#N)ncc1C(F)(F)F` [Example 80, 2-(4-((4-(methylamino)-5-(trifluoromethyl)pyrimidin-2-yl)amino)-7-(trifluoromethyl)-1H-indazol-1-yl)acetonitrile] gave an IC50 of less than 50 nM.

For `CNc1nc(Nc2ccc(C3=CCN(C)CC3)c3c2cnn3C)ncc1C(F)(F)F` [Example 81, N4-methyl-N2-(1-methyl-7-(1-methyl-1,2,3,6-tetrahydropyridin-4-yl)-1H-indazol-4-yl)-5-(trifluoromethyl)pyrimidine-2,4-diamine], the IC50 is less than 50 nM.

Turning to `CNc1nc(Nc2ccc(C3CCN(C)CC3)c3c2cnn3C)ncc1C(F)(F)F` [Example 82, N4-methyl-N2-(1-methyl-7-(1-methylpiperidin-4-yl)-1H-indazol-4-yl)-5-(trifluoromethyl)pyrimidine-2,4-diamine], the IC50 is less than 50 nM. Compound `CNc1nc(Nc2ccc(C3=CCOCC3)c3c2cnn3CC#N)ncc1C(F)(F)F` [Example 83, 2-(7-(3,6-dihydro-2H-pyran-4-yl)-4-((4-(methylamino)-5-(trifluoromethyl)pyrimidin-2-yl)amino)-1H-indazol-1-yl)acetonitrile] gave an IC50 of less than 50 nM. The compound `CNc1nc(Nc2ccc(OC(F)(F)F)c3c2cnn3CC#N)ncc1C(F)(F)F` [Example 84, 2-(4-((4-(methylamino)-5-(trifluoromethyl)pyrimidin-2-yl)amino)-7-(trifluoromethoxy)-1H-indazol-1-yl)acetonitrile] returned an IC50 of less than 50 nM.

In turn, `CNc1nc(Nc2ccc(F)c3c2cnn3CC#N)ncc1C(F)(F)F` [Example 85, 2-(7-fluoro-4-((4-(methylamino)-5-(trifluoromethyl)pyrimidin-2-yl)amino)-1H-indazol-1-yl)acetonitrile] registered an IC50 of less than 50 nM. The same measure for `CNc1nc(Nc2ccc(C3=CCOCC3)c3c2cnn3C)ncc1C(F)(F)F` [Example 86, N2-(7-(3,6-dihydro-2H-pyran-4-yl)-1-methyl-11H-indazol-4-yl)-N4-methyl-5-(trifluoromethyl)pyrimidine-2,4-diamine]: less than 50 nM; for `CNc1nc(Nc2ccc(C3=CCN(C)CC3)c3c2cnn3CC#N)ncc1C(F)(F)F` [Example 87, 2-(7-(1-methyl-1,2,3,6-tetrahydropyridin-4-yl)-4-((4-(methylamino)-5-(trifluoromethyl)pyrimidin-2-yl)amino)-11H-indazol-1-yl)acetonitrile]: less than 50 nM. As to `CNc1nc(Nc2ccc(C3CCOCC3)c3c2cnn3C)ncc1C(F)(F)F` [Example 88, N4-methyl-N2-(1-methyl-7-(tetrahydro-2H-pyran-4-yl)-1H-indazol-4-yl)-5-(trifluoromethyl)pyrimidine-2,4-diamine], the IC50 was less than 50 nM. The figure for `CNc1nc(Nc2ccc(C3CCOCC3)c3c2cnn3CC#N)ncc1C(F)(F)F` [Example 89, 2-(4-((4-(methylamino)-5-(trifluoromethyl)pyrimidin-2-yl)amino)-7-(tetrahydro-2H-pyran-4-yl)-1H-indazol-1-yl)acetonitrile] is less than 50 nM; for `CNc1nc(Nc2cc(C(F)(F)F)cc3c2cnn3CC#N)ncc1C(F)(F)F` [Example 90, 2-(4-((4-(methylamino)-5-(trifluoromethyl)pyrimidin-2-yl)amino)-6-(trifluoromethyl)-1H-indazol-1-yl)acetonitrile] it is less than 50 nM. Compound `CNc1nc(Nc2cc(F)cc3c2cnn3CC#N)ncc1C(F)(F)F` [Example 91, 2-(6-fluoro-4-((4-(methylamino)-5-(trifluoromethyl)pyrimidin-2-yl)amino)-1H-indazol-1-yl)acetonitrile] came in with a half-maximal inhibitory concentration (IC50) of less than 50 nM.

For the compound `CNc1nc(Nc2cc(Cl)cc3c2cnn3CC#N)ncc1C(F)(F)F` [Example 92, 2-(6-chloro-4-((4-(methylamino)-5-(trifluoromethyl)pyrimidin-2-yl)amino)-1H-indazol-1-yl)acetonitrile], the IC50 is less than 50 nM. The figure for `N#CCn1ncc2c(Nc3ncc(C(F)(F)F)c(NC4CC4)n3)cccc21` [Example 93] is less than 50 nM. The figure for `CNc1nc(Nc2cccc3c2cnn3CC(F)F)ncc1C(F)(F)F` [Example 94, N2-(1-(2,2-difluoroethyl)-1H-indazol-4-yl)-N4-methyl-5-(trifluoromethyl)pyrimidine-2,4-diamine] is less than 50 nM; for `N#CCn1ncc2c(Nc3ncc(C(F)(F)F)c(NC4CCCC4)n3)cccc21` [Example 95, 2-(4-((4-(cyclopentylamino)-5-(trifluoromethyl)pyrimidin-2-yl)amino)-1H-indazol-1-yl)acetonitrile] it is less than 50 nM; for `N#CCn1ncc2c(Nc3ncc(C(F)(F)F)c(NC4CC(F)(F)C4)n3)cccc21` [Example 96, 2-(4-((4-((3,3-difluorocyclobutyl)amino)-5-(trifluoromethyl)pyrimidin-2-yl)amino)-1H-indazol-1-yl)acetonitrile] it is less than 50 nM. The same measure for `CNc1nc(Nc2cccc3c2cnn3CC(C)(C)O)ncc1C(F)(F)F` [Example 97, 2-methyl-1-(4-((4-(methylamino)-5-(trifluoromethyl)pyrimidin-2-yl)amino)-1H-indazol-1-yl)propan-2-ol]: less than 50 nM; for `CCn1ncc2c(Nc3ncc(C(F)(F)F)c(NC)n3)cccc21` [Example 98, N2-(1-ethyl-1H-indazol-4-yl)-N4-methyl-5-(trifluoromethyl)pyrimidine-2,4 diamine]: less than 50 nM; for `CCn1ncc2c(Nc3ncc(C(F)(F)F)c(NC4CC4)n3)cccc21` [Example 99, N4-cyclopropyl-N2-(1-ethyl-1H-indazol-4-yl)-5-(trifluoromethyl)pyrimidine-2,4-diamine]: less than 50 nM. Compound `CNc1nc(Nc2ccc(C3=CCN(C)CC3)c3c2cnn3CC(N)=O)ncc1C(F)(F)F` [Example 100, 2-(7-(1-methyl-1,2,3,6-tetrahydropyridin-4-yl)-4-((4-(methylamino)-5-(trifluoromethyl)pyrimidin-2-yl)amino)-1H-indazol-1-yl)acetamide] had an IC50 of less than 50 nM.

The compound `CNc1nc(Nc2cccc3c2cnn3S(C)(=O)=O)ncc1C(F)(F)F` [Example 101] returned an IC50 of less than 50 nM.

`CS(=O)(=O)n1ncc2c(Nc3ncc(C(F)(F)F)c(NC4CC4)n3)cccc21` [Example 102, N4-cyclopropyl-N2-(1-(methylsulfonyl)-1H-indazol-4-yl)-5-(trifluoromethyl)pyrimidine-2,4-diamine] displayed a half-maximal inhibitory concentration (IC50) of less than 50 nM. `CC(C)(C#N)n1ncc2c(Nc3ncc(C(F)(F)F)c(NC4CC4)n3)cccc21` [Example 103, 2-(4-((4-(cyclopropylamino)-5-(trifluoromethyl)pyrimidin-2-yl)amino)-1H-indazol-1-yl)-2-methylpropanenitrile] returned an IC50 of less than 50 nM.

Take `N#CCn1ncc2c(Nc3ncc(C(F)(F)F)c(NCC4CC4)n3)cccc21` [Example 104, 2-(4-((4-((cyclopropylmethyl)amino)-5-(trifluoromethyl)pyrimidin-2-yl)amino)-1H-indazol-1-yl)acetonitrile]: the IC50 was less than 50 nM.
